{"source": "patent US20130123227A1", "about": "“NOVEL ORGANO-PALLADIUM COMPLEXES” (priority 2010, published 2013)", "experiment": "Seizure incidence in mice", "format": "in vivo", "description": "The original Pd-lipoic acid complex provides a structure in which the palladium is safely sequestered, and which is also active in the lipoic acid binding site in mitochondrial complex I, thereby coupling to enzymatic charge transfer. […] To eliminate seizure activity, the G10 stage of the synthetic complex was further investigated and combined with various substances, until there were no seizures. This was ultimately achieved by complexing with zinc-amino acid complexes."}
{"smiles": "C[C@@H](O)[C@H](N)C(=O)O.C[C@@H](O)[C@H](N)C(=O)O.[Zn]", "note": "[Zn-bis(threonine)]", "values": [{"measurement": "seizures", "value": "modulates and inhibits the seizure potentials"}]}
